Laboratory results from article PMC9781199, “Rational-Based Discovery of Novel β-Carboline Derivatives as Potential Antimalarials: From In Silico Identification of Novel Targets to Inhibition of Experimental Cerebral Malaria” (Pathogens, 2022).
Several values for one entry are separate records, joined by “and”; a condition that tells them apart may be missing. Equal entries are not always repeated. Where two headings read alike, the source gives them in different places.

Tests used:
[1] = tested on: Plasmodium falciparum W2 strain (CQ-resistant); experiment: In vitro antiplasmodial activity, SYBR test; format: cell-based; conditions: for SI (selectivity index): ratio between cytotoxic (WI-26-VA4) and antiplasmodial (W2) activities
Procedure: Continuous culture was maintained as previously described. In vitro antiplasmodial activity of the seven compounds against the P. falciparum culture was evaluated using the SYBR test as previously described. Compounds were diluted to concentrations ranging from 10 to 0.0001 μM. […] The plate was read in a fluorometer (Fluoroskan Ascent, Thermo Laboratories) with excitation at 485 nm and an emission of […]. All experiments were performed in triplicate. The results were expressed as the mean of minimum lethal dose for 50% of the culture (IC50).
Selectivity index (SI) is the ratio between the cytotoxic and antiplasmodial activities of each compound tested. The values greater than 10 were considered indicative of lack of cytoxicity, whereas the substances with values below 10 were considered toxic.

[2] = tested on: Plasmodium berghei ANKA; experiment: Curative test in the mouse model of experimental cerebral malaria; format: in vivo, C57BL/6 mice infected with P. berghei ANKA; conditions: for % Reduction of parasitemia, 7th dpi / Parasitemia ± SD, 7th dpi / % Reduction of parasitemia, 5th dpi / Parasitemia ± SD, 5th dpi: 10 mg/Kg oral, day 3 to 7 p.i.
[3] = tested on: Plasmodium berghei ANKA; experiment: Suppressive modified test in the mouse model of experimental cerebral malaria; format: in vivo, C57BL/6 mice infected with P. berghei ANKA; conditions: for % Reduction of parasitemia, 5th dpi / Parasitemia ± SD, 5th dpi / % Reduction of parasitemia, 7th dpi / Parasitemia ± SD, 7th dpi: suppressive test, 10 mg/Kg oral for five days from 4 h after infection
Procedure: The animals (n = 5/cage) were housed in ALESCO® climate-controlled cabinets with controlled air flow, a temperature of 22 ± 2 °C and light control, respecting the animals’ circadian rhythm (light/dark cycle of 12 h), with standard rodent food and water ad libitum.
To carry out the proposed experiments, the murine model of ECM was used to assess the antimalarial activity of the compounds. Plasmodium berghei ANKA was kindly provided by Claudio Romero Marinho (Federal University of São Paulo-Brazil), and was used to conduct the infections which were performed by intraperitoneal (i.p.) injection of 10^5 parasitized red blood cells (pRBCs) obtained from infected donor mice, as previously described. Reduced responsiveness to external stimuli, ataxia, paralysis, coma, and/or convulsions were considered clinical signals of ECM [44].
In the suppressive modified test, mice were treated daily by oral gavage for five consecutive days, starting four hours after infection.
Parasitemia was monitored using giemsa-stained blood smears and the inhibition of parasite multiplication (IPM) was calculated by the formula: [(A–B)/A] × 100, where A = parasitemia of the PbA, and B = parasitemia of the group treated with the compounds. The clinical symptoms were evaluated using the rapid murine coma and behavior scale (RMCBS) from day 5 p.i. being maintained until the end of experimentation. The RMCBS consists of 10 parameters (gait, balance, motor performance, body position, limb strength, touch escape, pinna reflex, toe pinch, aggression, and grooming). Each parameter is scored 0 to 2, with 0 being the lowest function and 2 being the highest. Animals with clinical score ≤ 5 were euthanized. The survival rate (SR) was calculated based on the number of alive animals after 14 days of clinical evaluation. […]

[4] = tested on: human pulmonary fibroblast cells WI-26VA4; experiment: In vitro cytotoxicity on mammalian cells, MTT assay; format: cell-based; conditions: read-out: WI-26-VA4 IC50 ± SD
Procedure: In vitro cytotoxicity of the compounds was assessed against human pulmonary fibroblast cells WI-26VA4 (ATCC CCL-95.1, USA), by 3-(4,5-dimethyl-2-thiazolyl)-2, 5-diphenyl-2H-tetrazolium bromide (MTT assay). Cells were cultured in a RPMI-1640 medium supplemented with 10% heat-inactivated fetal bovine serum in a 96-well plate. Compounds were diluted in different concentrations ranging from 100 to 1 μM and incubated with the cells for 48 h in a 5% CO2 atmosphere at 37 °C. The optical density was determined at 540 nm […] (Spectra Max340PC384, Molecular Devices, Sunnyvale, CA, USA). The minimum lethal dose for 50% of the cells (IC50) was determined as previously described.

[5] = tested on: NO production in murine peritoneal macrophages; experiment: NO production by LPS/IFN-γ stimulated macrophages, Griess method; format: cell-based, BALB/c mice; conditions: macrophages stimulated with LPS and IFN-γ, 18 to 150 μM, 48 h, p < 0.05
Procedure: NO production was determined in the culture supernatants of macrophages after being incubated for 48 h in the presence of compound 10 ([…]) and stimulated with LPS at 1 μg/mL and IFN-γ at 1 ng/mL. Negative control was stimulated with LPS and IFN-γ and treated with 0.06% DMSO (vehicle). The cells were incubated for 48 h at 37 °C and 5% CO2 atmosphere. Subsequently, NO production was evaluated by the Griess method (an indirect NO measurement by nitrite dosing) in the recovered culture supernatant from the 48 h stimuli and treatment as described by. The quantity of NO (μM) was determined by comparison with a standard sodium nitrite solution. The spectrophotometric measurement was performed at 540 nm and the experiment was performed in triplicate.

[6] = tested on: peritoneal macrophages of BALB/c mice; experiment: Cytotoxicity on peritoneal macrophages, MTT method; format: cell-based; conditions: 18 to 150 μM, 48 h
Procedure: Macrophages obtained from the peritoneal cavity of BALB/c mice previously inoculated with 3% thioglycollate medium for the evaluation of cell viability were used. The macrophages were seeded in culture bottles with a RPMI-1640 medium supplemented with 2 mM L-glutamine, 100 µg/mL antibiotics (streptomycin and penicillin), 5% fetal bovine serum (FBS) and kept in an incubator at 5% CO2 atmosphere at 37 °C until the day of the test. The protocol was approved by the Ethical Committee for Animal Research of Federal University of Juiz de Fora (n° 007/2018-CEUA).
Cytotoxicity was assessed by cell viability using the MTT method. Briefly, the macrophages at 2 × 10^6 cells/well were transferred to 96-well microplates and treated with compound 10 at concentrations of 18 to 150 μM. For the negative control, cells were treated only with 0.06% DMSO (vehicle). The cells were incubated for 48 h at 37 °C and 5% CO2 atmosphere. Absorbance was read at 570 nm and cell viability (%) of macrophages was obtained by the following formula: % viable cells = [(AUSample)/AU0.06% DMSO] × 100, where: AUSample: Absorbance was measured after treatment of cells with the sample; AU0.06% DMSO: Absorbance was measured after treatment of cells with 0.06% DMSO. The experiment was performed in triplicate.

[7] = Plasmodium falciparum, W2 strain (chloroquine-resistant), SYBR test, triplicate, read-out: P. falciparum IC50 ± SD
[8] = WI26VA4, human fibroblasts, MTT, 48 h, highest concentration 100 μM
[9] = suppressive treatment regimen, 10 mg/kg oral

Row | Molecule | % Reduction of parasitemia, 7th dpi [2] | Parasitemia ± SD, 7th dpi [2] | Parasitemia ± SD, 5th dpi [3] | % Reduction of parasitemia, 7th dpi [3] | Parasitemia ± SD, 7th dpi [3] | IC50 [1, 7] | SI (selectivity index) [1] | % Reduction of parasitemia, 5th dpi [2] | Parasitemia ± SD, 5th dpi [2] | Prevention of the development of CM (share of animals) ([2]; 10 mg/kg oral) | IC50 [4, 8] | other results
1 | CCN(CC)CCCC(C)Nc1ccnc2cc(Cl)ccc12 (stereo not drawn) [CQ, chloroquine, reference compound] | 96.1% | 0.21 ± 0.27 | 0.24 ± 0.05 | 96.1% | 0.21 ± 0.27 |  |  |  |  |  |  | IC50 ([1]; Plasmodium falciparum, W2, read-out: P. falciparum IC50 ± SD): 590 ± 15 nM; % Reduction of parasitemia, 5th dpi [3]: 96.5%; IC50 ([4]; Homo sapiens, WI26VA4, 48 h): > 100000 nM
2 | COC(=O)[C@@H]1Cc2c([nH]c3ccccc23)[C@H](c2ccccc2Cl)N1 [Compound 5, Methyl (1S,3S)-1-(2-Chloro)-2,3,4,9-tetrahydro-1H-pyrido[3,4-b]indole-3-carboxylate] | 0% | 7.20 ± 4.57 |  |  |  | 1410 ± 18 nM | >71 | 0.00% | 5.00 ± 1.59 | No protective effect | > 100000 nM | 
3 | COC(=O)[C@@H]1Cc2c([nH]c3ccccc23)[C@@H](c2ccccc2Cl)N1 [Compound 6, Methyl (1R,3S)-1-(2-Chloro)-2,3,4,9-tetrahydro-1H-pyrido[3,4-b]indole-3-carboxylate] |  |  |  |  |  | 670 ± 19 nM | >149 | 64.36% | 1.13 ± 0.48 | No protective effect | > 100000 nM | 
4 | CCN(CC)c1ccc(C2NCCc3c2[nH]c2ccccc32)c(O)c1 (stereo not drawn) [Compound 8, 5-(Diethylamino)-2-(2,3,4,9-tetrahydro-1H-pyrido[3,4-b]indol-1-yl)phenol] |  |  |  |  |  | 1820 ± 11 nM | >55 |  |  |  | > 100000 nM | 
5 | artemisinin [reference compound] |  |  |  |  |  |  |  |  |  |  |  | IC50 ([1]; W2 strain (chloroquine-resistant), SYBR test, triplicate, read-out: P. falciparum IC50 ± SD): 95 ± 10 nM; IC50 ([4]; human fibroblasts, MTT, 48 h, highest concentration 100 μM): > 100000 nM
6 | COc1cc(C2NCCc3c2[nH]c2ccccc32)cc(OC)c1OC (stereo not drawn) [Compound 9, 1-(3,4,5-Trimethoxyphenyl)-2,3,4,9-tetrahydro-1H-pyrido[3,4-b]indole] |  |  |  |  |  | 1120 ± 14 nM | >89 |  |  |  | > 100000 nM | 
7 | COC(=O)[C@@H]1Cc2c([nH]c3ccccc23)[C@H](c2ccccc2OC)N1 [Compound 3, Methyl (1S,3S)-1-(2-Methoxy)-2,3,4,9-tetrahydro-1H-pyrido[3,4-b]indole-3-carboxylate] | 0% | 7.50 ± 2.49 | 3.56 ± 2.57 | 0% | 7.96 ± 3.26 | 710 ± 12 nM | >141 | 41.19% | 1.87 ± 1.02 |  | > 100000 nM | % Reduction of parasitemia, 5th dpi [3]: 0.00%; Inhibition of parasite growth (in words) [3, 9]: not effective
8 | COc1cc(-c2nccc3c2[nH]c2ccccc23)cc(OC)c1OC [Compound 10, 1-(3,4,5-Trimethoxyphenyl)-9H-pyrido[3,4-b]indole] | 0% | 8.37 ± 2.26 | 0.57 ± 0.94 | 45.69% | 3.72 ± 3.93 | 510 ± 11 nM | >196 |  | 1.02 ± 0.93 | 70% | > 100000 nM | % Reduction of parasitemia, 5th dpi ([2]; 10 mg/kg): 67.9% and 67.92%; NO levels (nitrite equivalent) [5]: reduce NO levels at all concentrations tested; Toxicity for peritoneal macrophages (cell viability, MTT) [6]: no toxicity; % Reduction of parasitemia, 5th dpi ([3]; 10 mg/kg): 82% and 82.07%
9 | COC(=O)[C@@H]1Cc2c([nH]c3ccccc23)[C@@H](c2ccccc2OC)N1 [Compound 4, Methyl (1R,3S)-1-(2-Methoxy)-2,3,4,9-tetrahydro-1H-pyrido[3,4-b]indole-3-carboxylate] | 20.00% | 5.48± 3.64 | 1.88 ± 2.46 | 9.78% | 6.18 ± 4.75 | 1040 ± 21 nM | >96 | 75.16% | 0.79 ± 0.63 |  | > 100000 nM | Animals alive until the 14th dpi (without CM) ([2]; 10 mg/kg oral): 90%; % Reduction of parasitemia, 5th dpi ([3]; 10 mg/kg): 40% and 40.88%; Protection against CM (share of animals) [3, 9]: 60%
